Measurements published in ChEMBL document CHEMBL4406910, “Scaffold Morphing Identifies 3-Pyridyl Azetidine Ureas as Inhibitors of Nicotinamide Phosphoribosyltransferase (NAMPT)” (ACS Med Chem Lett, 2019).
Converted amounts (≈) assume the structure as drawn.

experiment: Solubility of compound in pH 6.8 PBS incubated for 16 to 24 hrs under shaking condition by LC-MS/MS analysis; type: physicochemical; conditions: not given

SMILES	solubility thermodynamic [µM]
C[C@H](NC(=O)c1cccc(F)c1)c1ccc(NC(=O)N2CC(c3cncc(N)c3)C2)cc1	17 (≈ 7.37 µg/mL)
C[C@H](NC(=O)[C@@H]1CCCN1C)c1ccc(NC(=O)N2CC(c3cncc(N)c3)C2)cc1	820 (≈ 346 µg/mL)
C[C@H](NC(=O)C1CCOCC1)c1ccc(NC(=O)N2CC(c3cccnc3)C2)cc1	380 (≈ 155 µg/mL)
C[C@H](NC(=O)[C@@H]1CCCN1C)c1ccc(NC(=O)N2CC(c3ccc(N)nc3)C2)cc1	760 (≈ 321 µg/mL)
C[C@H](NC(=O)c1ncccn1)c1ccc(NC(=O)N2CC(c3ccc(N)nc3)C2)cc1	300 (≈ 125 µg/mL)
C[C@H](NC(=O)c1ncccn1)c1ccc(NC(=O)N2CC(c3cncc(N)c3)C2)cc1	300 (≈ 125 µg/mL)
C[C@H](NC(=O)[C@@H]1CCCN1C)c1ccc(NC(=O)N2CC(c3cccnc3)C2)cc1	> 1000
C[C@H](NC(=O)C1CCOCC1)c1ccc(NC(=O)N2CC(c3cncc(N)c3)C2)cc1	440 (≈ 186 µg/mL)
CCC(=O)N[C@@H](C)c1ccc(NC(=O)N2CC(c3ccc(N)nc3)C2)cc1	760 (≈ 279 µg/mL)
C[C@H](NC(=O)c1ncccn1)c1ccc(NC(=O)N2CC(c3cccnc3)C2)cc1	930 (≈ 374 µg/mL)
C[C@@H](c1ccc(NC(=O)N2CC(c3cccnc3)C2)cc1)N1Cc2ccccc2C1=O	130 (≈ 53.6 µg/mL)
C[C@@H](c1ccc(NC(=O)N2CC(c3ccc(N)nc3)C2)cc1)N1Cc2ccccc2C1=O	220 (≈ 94.1 µg/mL)

Other lines, results leading:

solubility thermodynamic [µM]	SMILES
35 (≈ 15 µg/mL)	C[C@@H](c1ccc(NC(=O)N2CC(c3cncc(N)c3)C2)cc1)N1Cc2ccccc2C1=O
11 (≈ 4.6 µg/mL)	C[C@H](NC(=O)c1cccc(F)c1)c1ccc(NC(=O)N2CC(c3cccnc3)C2)cc1
310 (≈ 131 µg/mL)	C[C@H](NC(=O)C1CCOCC1)c1ccc(NC(=O)N2CC(c3ccc(N)nc3)C2)cc1
230 (≈ 84.5 µg/mL)	CCC(=O)N[C@@H](C)c1ccc(NC(=O)N2CC(c3cncc(N)c3)C2)cc1
32 (≈ 13.9 µg/mL)	C[C@H](NC(=O)c1cccc(F)c1)c1ccc(NC(=O)N2CC(c3ccc(N)nc3)C2)cc1
700 (≈ 247 µg/mL)	CCC(=O)N[C@@H](C)c1ccc(NC(=O)N2CC(c3cccnc3)C2)cc1

experiment: Cmax in athymic nude mouse at 10 mg/kg, po measured for 0.5 to 24 hrs by LC-MS/MS analysis; type: ADME, organism-based; set-up: dose 10 mg/kg, route oral; conditions: in vivo

Cmax [µM]	SMILES
29.1	CCOc1nc2ccccc2n1Cc1ccc(NC(=O)N2CC(c3cccnc3)C2)cc1

experiment: AUC (0 to 7 hrs) in athymic nude mouse at 10 mg/kg, po measured for 0.5 to 24 hrs by LC-MS/MS analysis; type: ADME, organism-based; set-up: time < 7 hr, dose 10 mg/kg, route oral; conditions: in vivo

AUC(0-t) at 7 h [µM·h]	SMILES
67.4	CCOc1nc2ccccc2n1Cc1ccc(NC(=O)N2CC(c3cccnc3)C2)cc1
